This note sets out measurements from ChEMBL document CHEMBL3243942, “Nondepressant beta-adrenergic blocking agents. 1. Substituted 3-amino-1-(5,6,7,8-tetrahydro-1-naphthoxy)-2-propanols” (J Med Chem, 1978).

A short description of data set [1]: Inhibition of beta-adrenergic receptor in isoproterenol-stimulated guinea pig atrial muscle. Format: tissue-based, Cavia porcellus, Cardiac atrium.
The nature of data set [2]: Myocardial depressant activity in guinea pig atrial muscle assessed as maximal non-depressant dose by measuring contractility. Format: ADME, tissue-based, Cavia porcellus, Muscle tissue.
For data set [3], the target named is Adrenergic receptor beta (Rattus norvegicus, UniProt P18090+P10608+P26255). The data set is described as follows: Inhibition of beta-adrenergic receptor in rat portal vein.
A short description of data set [4]: Myocardial depressant activity in guinea pig atrial muscle assessed as decrease in contractility at 0.31 x 10^-3 to 0.31 mg/ml. It counts as ADME, tissue-based, Cavia porcellus, Muscle tissue.
Data set [5] can be described thus: Myocardial depressant activity in guinea pig atrial muscle assessed as decrease in contractility at 1.0 mg/ml. Format: ADME, tissue-based, Cavia porcellus, Muscle tissue.
A short description of data set [6]: Retention time of the compound. Format: physicochemical.
For data set [7], the species on record is Felis catus. The data set is described as follows: Inhibition of beta-adrenergic receptor in cat papillary muscle. Format: tissue-based.
Data set [8] is described as follows: Myocardial depressant activity in cat papillary muscle assessed as decrease in contractile force at >0.31 mg/ml. Format: ADME, tissue-based, Felis catus, Muscle tissue.

Converted amounts (≈) assume the structure as drawn. The source made the active and inactive calls. No cut-off for these calls is given here.

What is called IC50 is the point on the concentration scale where inhibition reaches its midpoint. A low value points to higher potency.

Compound `CO[C@@H]1c2cccc(OCC(O)CNC(C)C)c2CC[C@H]1O.O=C(O)C(=O)O` (relative stereo) gave an IC50 in data set [1] of 0.05 µg/mL. Moreover, the Activity in data set [2] was found to be 31 µg/mL.
For the compound `CC(O)(CNC(C)(C)C)COc1cccc2c1C[C@H](O)[C@H](O)C2` (stereo not given in full), the IC50 in data set [1] was 16 µg/mL (≈ 49.5 µM). In addition, the Activity in data set [2] turned out to be 31 µg/mL.
In the case of `COc1ccc(CCNCC(O)COc2cc(O)c(O)c3c2CCCC3)cc1OC.Cl` (stereo not given), in data set [1], it took 5.9 µg/mL to reach half-maximal inhibition (IC50). In addition, in data set [2], the Activity was 3.1 µg/mL.
Regarding `CC(C)NCC(O)COc1cccc2c1CC1OC1C2` (stereo not given), inhibition in data set [1] was half-maximal at 0.012 µg/mL (≈ 0.0433 µM) (IC50). Moreover, the Activity in data set [2] stood at 31 µg/mL.
For `OC(CNCCc1ccccc1)COc1cccc2c1C[C@H](O)[C@H](O)C2` (stereo not given in full) the same measures were 0.5 µg/mL (≈ 1.4 µM) and 100 µg/mL.
The corresponding values for `CCOc1ccccc1OCCNCC(O)COc1cccc2c1C[C@H](O)[C@H](O)C2` (stereo not given in full) are 0.31 µg/mL (≈ 0.743 µM) and 31 µg/mL.
For `CC(C)(C)NCC(O)COc1cccc2c1CCC(O)C2` (stereo not given) the same measures were 0.001 µg/mL (≈ 0.00341 µM) and 10 µg/mL.
Regarding `CC(C)NCC(O)COc1cccc2c1CCC(=O)C2` (stereo not given), the IC50 in data set [1] came out at 0.006 µg/mL (≈ 0.0216 µM). Also, in data set [2], the Activity turned out to be 3.1 µg/mL.
In turn, `CC(C)(C)NCC(O)COc1cccc2c1CC=CC2` (stereo not given) registered an IC50 in data set [3] of 0.0013 µg/mL (≈ 0.00472 µM). In addition, in data set [2], the Activity amounted to 0.3 µg/mL.
`COc1ccc(CCNCC(O)COc2ccc(O)c3c2CCCC3)cc1OC` (stereo not given): the IC50 in data set [1] came to 0.024 µg/mL (≈ 0.0598 µM). The Activity in data set [2] was determined as 3.1 µg/mL.
Take `CC(C)(C)NCC(O)COc1ccc(O)c2c1C[C@@H](O)[C@@H](O)C2.Cl` (relative stereo): inhibition in data set [1] was half-maximal at 0.086 µg/mL (IC50). Also, the “inhibition (INH)” value in data set [4] is reported as 10%. In addition, the Activity result in data set [5] is reported as “Non-toxic”.
In the case of `CO[C@@H]1c2c(cccc2OCC(O)CNC(C)C)CC[C@@H]1O.O=C(O)C(=O)O` (relative stereo), half-maximal inhibition in data set [1] (IC50) was put at 0.8 µg/mL. Besides, the Activity in data set [2] amounted to 10 µg/mL.
In turn, `CC(C)(C)NCC(O)COc1cccc2c1C[C@@H](O)[C@@H](O)C2` (relative stereo) gave an IC50 in data set [1] of 0.03 µg/mL (≈ 0.097 µM). Moreover, the Activity in data set [2] is above 1000 µg/mL.
In data set [6], `Oc1cccc2c1C=CCC2` yielded a Retention_time of 35 min.
In data set [3], `CC(C)(C)CC(C)(C)NCC(O)COc1cccc2c1C[C@H](O)[C@H](O)C2` (stereo not given in full) showed an IC50 of 0.78 µg/mL (≈ 2.13 µM). The Activity in data set [2] stood at 1 µg/mL.
In data set [1], `CC(C)(C)NCC(O)COc1ccc2c(c1)C[C@@H](O)[C@@H](O)C2` (relative stereo) yielded an IC50 of 10 µg/mL (≈ 32.3 µM). Besides, the Activity in data set [2] is above 1000 µg/mL.
The corresponding values for `CC(C)(C)[N+](C)(C)CC(O)COc1cccc2c1C[C@H](O)[C@H](O)C2.[I-]` (stereo not given in full) are 0.63 µg/mL and 1000 µg/mL.
The corresponding values for `CC(C)(C)NCC(O)COc1cccc2c1C[C@H](O)[C@@H](O)C2` (relative stereo) are 0.015 µg/mL (≈ 0.0485 µM) and above 1000 µg/mL.
The corresponding values for `CC(C)NCC(O)COc1cccc2c1C[C@@H](O)[C@@H](O)C2` (relative stereo) are 0.1 µg/mL (≈ 0.339 µM) and above 1000 µg/mL.
`CCN(CC)CC(O)COc1cccc2c1C[C@H](O)[C@H](O)C2` (stereo not given in full) displayed an IC50 in data set [1] of 31 µg/mL (≈ 100 µM). Moreover, the Activity in data set [2] was above 1000 µg/mL.
The corresponding values for `OC(CNCc1ccccc1)COc1cccc2c1C[C@H](O)[C@H](O)C2` (stereo not given in full) are 1 µg/mL (≈ 2.91 µM) and 100 µg/mL.
On to `CC(C)(C)NCC(O)COc1ccc(I)c2c1C[C@H](O)[C@H](O)C2` (relative stereo), for which the inhibition result in data set [7] was “Active”. The Activity result in data set [8] is “Toxic”.
For the compound `Cl.NCC(O)COc1cccc2c1C[C@H](O)[C@H](O)C2` (stereo not given in full), the IC50 in data set [1] worked out at 3.8 µg/mL. Moreover, the Activity in data set [2] is above 1000 µg/mL.
`C=CCc1ccc(OCCNCC(O)COc2cccc3c2C[C@H](O)[C@H](O)C3)c(OC)c1` (stereo not given in full) registered an IC50 in data set [3] of 1.5 µg/mL (≈ 3.38 µM). Further, the Activity in data set [2] was determined as 3.1 µg/mL.
In turn, `CC(C)(C)NCC(O)COc1cc(O)c(O)c2c1CCCC2` (stereo not given) had an IC50 in data set [1] of 0.1 µg/mL (≈ 0.323 µM). Further, in data set [2], the Activity stood at 10 µg/mL.
For `CC(C)N(Cc1ccccc1)CC(O)COc1cccc2c1C[C@H](O)[C@H](O)C2` (stereo not given in full) the same measures were 80 µg/mL (≈ 208 µM) and 310 µg/mL.
In data set [1], `CC(C)NCC(O)COc1cccc2c1CCC(O)C2.O=C(O)C(=O)O` (stereo not given) registered an IC50 of 0.002 µg/mL. The Activity in data set [2] amounted to 31 µg/mL.
`CCCCNCC(O)COc1cccc2c1C[C@H](O)[C@H](O)C2` (stereo not given in full) showed an IC50 in data set [3] of 0.44 µg/mL (≈ 1.42 µM).
The compound `Oc1cccc2c1CCC=C2` came in with a Retention_time in data set [6] of 37 min.
As to `CC(C)(C)NCC(O)COc1cccc2c1CCCC2=O` (stereo not given) [BUNOLOL], the IC50 in data set [1] is 0.006 µg/mL (≈ 0.0206 µM). Besides, the Activity in data set [2] was determined as 1 µg/mL.
Take `CC(C)NCC(O)COc1cccc2ccccc12` (stereo not given) [PROPRANOLOL]: in data set [2], the Activity was 0.31 µg/mL.
In data set [3], `COc1ccccc1N1CCN(CC(O)COc2cccc3c2C[C@H](O)[C@H](O)C3)CC1` (stereo not given in full) gave an IC50 of 0.46 µg/mL (≈ 1.07 µM).
Turning to `CC(C)(C)NCC(O)COc1ccc(O)c2c1C[C@@H]1OCO[C@@H]1C2` (stereo not given in full), the IC50 in data set [1] amounted to 0.3 µg/mL (≈ 0.889 µM). Also, the Activity in data set [2] is 100 µg/mL.
For `CC(C)(C)NCC(O)COc1cccc2c1CC[C@@H](O)[C@@H]2O` (relative stereo) the same measures were 0.02 µg/mL (≈ 0.0646 µM) and 310 µg/mL.
The corresponding values for `CC(C)(C)NCC(O)COc1cccc2c1CC(O)CC2` (stereo not given) are 0.0025 µg/mL (≈ 0.00852 µM) and 1 µg/mL.
For `Oc1cccc2c1CCCC2`, the Retention_time in data set [6] was 37.5 min.
Regarding `CCN(CC(O)COc1cccc2c1C[C@H](O)[C@H](O)C2)C(C)(C)C` (stereo not given in full), in data set [2], the Activity is above 1000 µg/mL.
`Cl.NCC(O)COc1ccc(O)c2c1CCCC2` (stereo not given) showed an IC50 in data set [1] of 0.15 µg/mL. The Activity in data set [2] stood at 31 µg/mL.
For `CC(C)NCC(O)COc1cccc2c1CC=CC2` (stereo not given) the same measures were 0.001 µg/mL (≈ 0.00383 µM) and 1 µg/mL.
Take `CC(C)NCC(O)COc1cccc2c1CC(O)CC2` (stereo not given): in data set [1], the midpoint of inhibition, the IC50, lay at 0.005 µg/mL (≈ 0.0179 µM). For the same compound, the Activity in data set [2] was 3.1 µg/mL.
The corresponding values for `CC(C)(C)NCC(O)COc1cccc2c1C[C@@H]1OCO[C@@H]1C2` (relative stereo) are 0.04 µg/mL (≈ 0.124 µM) and 3.1 µg/mL.
For `CC(C)NCC(O)COc1cc(O)c(O)c2c1CCCC2` (stereo not given) the same measures were 0.11 µg/mL (≈ 0.372 µM) and 100 µg/mL.
For the compound `CC(C)(C)N(CCNCC(O)COc1cccc2c1C[C@H](O)[C@H](O)C2)Cc1ccccc1` (stereo not given in full), the IC50 in data set [3] was above 8 µg/mL. The Activity in data set [2] stood at 31 µg/mL.
In data set [1], `CC(C)NCC(O)COc1cccc2c1CCCC2` (stereo not given) yielded an IC50 of 0.01 µg/mL (≈ 0.038 µM). Moreover, in data set [2], the Activity is 1 µg/mL.
In turn, `CC(C)(Cc1ccccc1)NCC(O)COc1cccc2c1C[C@H](O)[C@H](O)C2` (stereo not given in full) showed an IC50 in data set [3] of 0.045 µg/mL (≈ 0.117 µM). The Activity in data set [2] worked out at 3.1 µg/mL.
As for `CN(CC(O)COc1cccc2c1C[C@H](O)[C@H](O)C2)C(C)(C)C` (stereo not given in full), the IC50 result in data set [1] was “Not Active”. Further, the Activity in data set [2] is above 1000 µg/mL.
For `CC(C)(C)NCC(O)COc1ccc2c(c1)C[C@@H](O)[C@H](O)C2` (relative stereo) the same measures were 6 µg/mL (≈ 19.4 µM) and 100 µg/mL.
`COc1ccc(CCNCC(O)COc2cccc3c2C[C@H](O)[C@H](O)C3)cc1OC` (stereo not given in full) showed an IC50 in data set [1] of 0.07 µg/mL (≈ 0.168 µM). Also, the Activity in data set [2] is above 1000 µg/mL.
In the case of `CO[C@H]1Cc2cccc(OCC(O)CNC(C)(C)C)c2C[C@H]1OC.Cl` (relative stereo), the IC50 in data set [3] came out at 0.051 µg/mL. Moreover, the Activity in data set [2] came to 100 µg/mL.
As for `CC(C)NCC(O)COc1cccc2c1C[C@H](O)[C@@H](O)C2` (relative stereo), the IC50 in data set [1] came out at 0.05 µg/mL (≈ 0.169 µM). Besides, the Activity in data set [2] is above 1000 µg/mL.
On to `CC(C)NCC(O)COc1ccc(O)c2c1CCCC2` (stereo not given), for which the IC50 in data set [1] is 0.004 µg/mL (≈ 0.0143 µM). The Activity in data set [2] worked out at 10 µg/mL.
The corresponding values for `OC(COc1cccc2c1C[C@H](O)[C@H](O)C2)CN1CCN(c2ccccn2)CC1` (stereo not given in full) are “Not Active” and above 310 µg/mL.
With `CC(C)(C)NCC(O)COc1ccc(O)c2c1CCCC2` (stereo not given), half-maximal inhibition in data set [1] (IC50) required 0.01 µg/mL (≈ 0.0341 µM). Moreover, the Activity in data set [2] was found to be 10 µg/mL.
